# Data from patent US11149020B2, “MAP kinase modulators and uses thereof” (The Trustees of Columbia University in the City of New York, priority 2013, dated 2021).
# What was measured:
# [1] = system: murine microglial BV-2 cell line; assay: cells; type: cell-based; details: for IL-1β production with diverse TLR ligands: BV-2 cells, TLR2, TLR4, TLR7/8, TLR9 ligands
# [2] = system: LPS-induced IL-1β in brain cortex; assay: In vivo LPS-induced brain cortex IL-1β; design: species or system mouse; details: oral administration, 20 mg/Kg, 6 hrs after LPS
# APP/PS1 mice [3] = assay: LTP in APP/PS1 mice; type: in vivo, mouse; details: 2.5 mg/kg, daily, p.o., from 2 months until 3-4 months of age
# APP/PS1 mice [4] = assay: RAWM in APP/PS1 mice; details: 2.5 mg/kg, daily, p.o., from 2 months of age
# human p38α MAPK = human p38α MAPK (Homo sapiens (Human), UniProt Q16539); assay: Kinase assay, concentration dependent inhibition of p38α MAPK; type: biochemical; details: for Ki: kinetic analyses
# Chain of human p38α MAPK (Q16539 whole entry): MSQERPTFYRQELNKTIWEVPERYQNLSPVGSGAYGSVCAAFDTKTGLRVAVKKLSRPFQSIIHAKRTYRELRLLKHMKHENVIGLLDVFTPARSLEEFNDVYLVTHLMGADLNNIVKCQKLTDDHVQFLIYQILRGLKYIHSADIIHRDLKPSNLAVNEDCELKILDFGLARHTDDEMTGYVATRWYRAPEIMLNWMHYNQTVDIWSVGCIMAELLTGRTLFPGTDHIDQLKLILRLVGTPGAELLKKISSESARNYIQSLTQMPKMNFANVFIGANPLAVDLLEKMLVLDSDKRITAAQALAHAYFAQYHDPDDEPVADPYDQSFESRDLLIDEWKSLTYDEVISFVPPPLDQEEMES
# CK-1δ = CK-1δ (Homo sapiens (Human), UniProt P48730); assay: Kinase assay, concentration dependent inhibition of CK-1δ; details: read-out: Ck1δ IC50
# Chain of CK-1δ (P48730 whole entry): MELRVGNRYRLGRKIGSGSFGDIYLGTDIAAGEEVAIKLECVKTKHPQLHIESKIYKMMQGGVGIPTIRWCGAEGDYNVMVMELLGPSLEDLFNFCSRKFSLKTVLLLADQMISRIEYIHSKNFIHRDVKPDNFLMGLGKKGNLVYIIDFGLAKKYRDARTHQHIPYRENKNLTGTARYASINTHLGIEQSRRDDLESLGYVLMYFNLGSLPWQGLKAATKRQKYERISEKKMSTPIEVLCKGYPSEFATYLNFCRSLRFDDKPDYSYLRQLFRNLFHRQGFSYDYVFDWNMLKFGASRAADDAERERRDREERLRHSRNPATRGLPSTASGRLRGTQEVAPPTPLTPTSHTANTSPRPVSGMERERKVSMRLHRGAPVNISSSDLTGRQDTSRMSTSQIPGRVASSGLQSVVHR
# APP/PS1 mice [5] = assay: Fear conditioning (contextual and cued) in APP/PS1 mice; details: 2.5 mg/kg, daily, p.o., from 2 months of age
# Aβ42-infused mice [6] = assay: Contextual fear conditioning in Aβ42-infused mice; type: in vivo, mouse; details: 5 mg/Kg, i.p.
# Aβ42-infused mice [7] = assay: 2-day radial arm water maze (RAWM) in Aβ42-infused mice; type: in vivo, mouse; details: 5 mg/Kg, i.p.
# [8] = system: Aβ42-treated hippocampal slices; assay: LTP in hippocampal slices treated with oligomeric Aβ42; design: species or system mouse; details: 10 μM, 200 nM Aβ42
# panel of 158 GPCRs = assay: Millipore GPCR Profiler cell-based functional screen (calcium flux FLIPR)
# Source text: Compounds were screened in vivo using a standard dose escalation screen in mice coupled with clinical observation and testing based on the SHIRPA mouse phenotype assay paradigm (Mammalian Genome 8, 711-719 SHIRPA (1997); herein incorporated by reference in its entirety). To obtain insight into the potential for off-target activity with the largest known family of small molecule drug targets, G-protein coupled receptors (GPCRs), a cell-based functional screen of the final title compounds was done. The Millipore® GPCR Profiler screen employs the ChemiScreen GPCR stable cell line technology used for real-time calcium flux FLIPR assays on a panel of 158 GPCRs. The NCBI Entrez identifier for each GPCR is provided at the vendor site (www.millipore.com). Follow-up validation of any initial hits as being true positives or negatives was done as described above for protein kinases by testing the concentration dependence of any cellular effects.
# >291 protein kinases = assay: Millipore Profiler large-scale kinome screen
# [9] = system: APP/PS1 transgenic and APP/PS1 knock-in mice; assay: β-amyloid plaque count, 6E10 immunohistochemistry; type: in vivo, mouse
# Description: Histopathology. Immunohistochemistry was performed using the Ventana BenchMark Ultra automated platform. Tissue sections were first deparaffinized using Ventana's “ez-prep” solution. Antigen retrieval was performed by treatment at 95° C. for 54 minutes using Ventana's CC1 (pH 7.3) solution, followed by treatment with 0.3% hydrogen peroxide to block endogenous peroxidase. Tissue sections were then incubated in protein-free block (Biocare's background sniper) for 15 min to inhibit nonspecific binding. Primary antibody (anti-Aβ 6E10 at 1:400, Biocare Medical) was incubated for 32 min at room temperature. […] A board-certified neuropathologist, who was blinded to the treatment versus the control group, analyzed a sagittal section from each mouse and counted the total number of well-formed β-amyloid plaques.
# MW-150 treatment improves cognitive performance in the absence of effect on Aβ plaque burden. […] (FIG. 26C) Quantification by a board-certified neuropathologist blinded to the treatment groups was done by analysis of a brain sagittal section from each mouse in which the total number of well-formed β-amyloid plaques in the entire section were counted. […] (FIG. 26D) In a separate experiment with APP/PS1 knock-in (KI) mice, Aβ plaques were quantified from KI mice treated with MW-150 or vehicle.
# [10] = Repeat dosing, observation of adverse events; type: in vivo, mouse; details: aged or diseased animals
# Source text: Further, the results in a battery of behavioral tests are consistent with a true hippocampus-dependent mechanism of action in attenuation of memory deficits. […] The selective improvement in cognitive behavior was also brought about with no effect on amyloid plaque load (Wilcock, D. M., and Colton, C. A. (2009) Immunotherapy, vascular pathology and microhemorrhages in transgenic mice. CNS Neurol. Disord.: Drug Targets 8, 50-64, herein incorporated by reference in its entirety).
# [11] = system: synaptic depression induced by OGD; assay: Oxygen glucose deprivation (OGD) in entorhinal slices, field potentials; details: 10 μM, 10 min OGD
# Description: Slice preparation. Animals were anesthetized using urethane (20% solution, 1 mL/100 g body weight) via intraperitoneal injection and then decapitated after disappearance of the tail pinch reflex. After brain removal, horizontal sections (400 μm in thickness), containing the entorhinal area, were made on a Vibratome. All steps were performed in ice-cold oxygenated ACSF solution. Before recording, slices were stored for at least 1 h in a recovery chamber containing oxygenated ACSF solution at room temperature. For electrophysiology, slices were perfused at a rate of 2.5-3 mL/min with oxygenated ACSF at 33±1° C. […] The amplitude of FP was monitored every 20 s and averaged every three responses by online data acquisition software. Effects on synaptic function were evaluated either during ischemia (as the average of FPs amplitude during the last 3 min of 10 min OGD application) or as the recovery of FPs calculated as the averaged relative amplitude of FPs respect to the baseline values after reintroduction of regular ACSF (from 41st to 50th min after the end of OGD). […]
SMILES,IL-1β production with diverse TLR ligands [1],LPS-induced IL-1β levels in brain cortex [2],LTP defect in APP/PS1 mice (APP/PS1 mice [3]),spatial/reference memory defect (RAWM) in APP/PS1 mice (APP/PS1 mice [4]),IC50 (human p38α MAPK) [nM],Ki (human p38α MAPK) [nM],IC50 (CK-1δ) [nM],contextual fear memory defect in APP/PS1 mice (APP/PS1 mice [5]),further results
CN(C)c1cc(-c2ccncc2)c(-c2cccc3ccccc23)nn1 [MW-181 (1)],inhibition of increased cytokine production by glia in response to LPS (IC50=820±30 nM) and other TLR ligands,in vivo suppression of increased brain levels of IL-1β after oral administration,–,–,–,–,–,–,–
"c1ccc2cc(-c3nnc(C4CC4)cc3-c3ccncc3)ccc2c1 [9 (MW-125), 6-Cyclopropyl-4-(pyridin-4-yl)-3-(naphthalen-2-yl)pyridazine]",–,–,rescue defects in LTP,rescue defects in spatial memory,412,127,> 10000,rescue the defect in contextual fear learning,–
CN(C)c1cc(-c2ccncc2)c(-c2ccc3ccccc3c2)nn1 [MW-108 (2)],also seen in BV-2 cells stimulated with diverse TLR ligands,restored IL-1β levels in the brain cortex back towards control,–,–,–,–,–,–,"contextual fear memory deficit in Aβ42-infused mice (Aβ42-infused mice [6]): prevented by MW-108 (2) administration; reference memory deficit (RAWM) in Aβ42-infused mice (Aβ42-infused mice [7]): rescued the memory defects; IC50 ([1]; Mus musculus, LPS-stimulated BV-2 cells, 18 hrs, read-out: IC50 using inhibition of IL-1β overproduction as end point): 610 ± 20 nM; LTP deficit in Aβ42-treated slices [8]: ameliorated the Aβ-induced electrophysiological deficit; GPCR screen result (panel of 158 GPCRs): negative; large scale kinase screen result (>291 protein kinases): negative"
"CN1CCN(c2cc(-c3ccncc3)c(-c3ccc4ccccc4c3)nn2)CC1 [27 (MW-150), 6-(4-methylpiperazine-1-yl)-3-(naphthalen-2-yl)-4-(pyridin-4-yl)pyridazine]",–,–,rescue defects in LTP,rescue defects in spatial memory,–,–,–,rescue the defect in contextual fear learning,amyloid plaque burden [9]: no effects of MW-150 treatment on the amyloid plaque burden; adverse events with repeat dosing [10]: did not bring about any observed adverse events; synaptic depression induced by OGD [11]: ameliorated
"c1ccc2c(-c3nnc(C4CC4)cc3-c3ccncc3)cccc2c1 [7 (MW-077), 6-cyclopropyl-3-(naphthalen-1-yl)-4-(pyridin-4-yl)pyridazine]",–,–,rescue defects in LTP,rescue defects in spatial memory,419,186,> 10000,rescue the defect in contextual fear learning,–
"CN1CCN(c2cc(-c3ccncc3)c(-c3cccc4[nH]ccc34)nn2)CC1 [29 (MW-108), 4-(6-(4-methylpiperazin-1-yl)-4-(pyridin-4-yl)pyridazin-3-yl)-1H-indole]",–,–,–,–,3070,–,6130,–,–
